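These data come from cells grown in 96-well plates and exposed to compound for 48 hours at five concentrations. GI50 = concentration required for 50% inhibition of growth. TGI: total growth inhibition.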
Experiments:
Test in all cases: NCI tumour cell line growth inhibition, 48 h
[1] = test system: SNB-75 CNS
[2] = test system: UO-31 renal
[3] = test system: HS 578T breast
[4] = test system: HCC-2998 colon
[5] = test system: SK-OV-3 ovarian
[6] = test system: MALME-3M melanoma
[7] = test system: HCT-116 colon
[8] = test system: M14 melanoma
[9] = test system: SNB-19 CNS
[10] = test system: SK-MEL-5 melanoma

Compound	GI50 [1]	TGI [1]	GI50 [2]	TGI [2]	GI50 [3]	TGI [3]	GI50 [4]	TGI [4]	GI50 [5]	TGI [5]	GI50 [6]	TGI [6]	GI50 [7]	TGI [7]	GI50 [8]	TGI [8]	GI50 [9]	TGI [9]	GI50 [10]	TGI [10]
COc1ccc(Cn2c(Br)c3c(c2-c2cc(OC)c(OC)c(OC)c2)CCc2sc(N)nc2-3)cc1	0.688 µM	31.8 µM	1.5 µM	17.9 µM	2.08 µM	> 100 µM	2.93 µM	12.3 µM	1.2 µM	8.04 µM	0.438 µM	28.5 µM	1.4 µM	> 100 µM	1.36 µM	> 44.9 µM	3.97 µM	> 100 µM	1.6 µM	13.5 µM
COc1cc(/C=C/C(=O)c2nc3cc(F)ccc3nc2C)cc(OC)c1OC	9.3 µM	> 100 µM	7.07 µM	> 100 µM	5.34 µM	> 100 µM	> 100 µM	> 100 µM	> 100 µM	> 100 µM	1.71 µM	> 100 µM	3.59 µM	> 51.6 µM	> 43.2 µM	> 100 µM	> 51.1 µM	> 100 µM	5.04 µM	> 100 µM
COc1ccc(-n2c(=O)c3ccccc3n(Cc3ccc(C(=O)NO)cc3)c2=O)cc1	1.72 µM	5.71 µM	6.58 µM	21.5 µM	2.67 µM	24.2 µM	1.81 µM	3.58 µM	2.45 µM	6.69 µM	1.58 µM	5.92 µM	1.78 µM	4.16 µM	1.71 µM	3.44 µM	2.96 µM	18.5 µM	1.73 µM	3.45 µM
COc1ccccc1CNCCCN1C(=O)c2ccc3c4c(ccc(c24)C1=O)C(=O)N(CCCNCc1ccccc1OC)C3=O	0.283 µM	0.754 µM	0.196 µM	0.458 µM	0.59 µM	2.13 µM	0.166 µM	0.328 µM	0.352 µM	1 µM	0.155 µM	0.32 µM	0.0805 µM	0.274 µM	0.179 µM	0.337 µM	0.159 µM	0.347 µM	0.155 µM	0.29 µM
COc1cc2c3c(n(CCCN)c(=O)c2cc1OC)-c1ccc(N)cc1C3=O	1.75 µM	12.3 µM	37.2 µM	> 100 µM	2.02 µM	12.5 µM	0.806 µM	6 µM	2.52 µM	17.9 µM	5.85 µM	26.4 µM	0.339 µM	1.35 µM	2.21 µM	13.7 µM	1.27 µM	16.3 µM	0.902 µM	2.88 µM
O=C1NC(=NCc2cccs2)O/C1=C\c1ccc2ncccc2c1	1.72 µM	8.08 µM	4.99 µM	14.1 µM	4.72 µM	14.8 µM	7.76 µM	> 25 µM	4.1 µM	12.2 µM	4.85 µM	15.3 µM	4.92 µM	> 25 µM	5 µM	17 µM	7.04 µM	> 25 µM	4.63 µM	9.83 µM
COc1cc2c(cc1C)NC(=O)/C2=C\c1ccc(Oc2ccccc2)cc1	21 µM	37.4 µM	14.8 µM	30.9 µM	20.7 µM	46.9 µM	16.3 µM	29.9 µM	17 µM	31.4 µM	20.1 µM	41.1 µM	5.85 µM	17.7 µM	15.1 µM	29.2 µM	17.8 µM	32.9 µM	14.5 µM	27.9 µM
CN(C)c1ccc(/C=N/N=C(\C#N)[S][Sn]([Cl])([c]2ccccc2)[c]2ccccc2)cc1	1.07 µM	2.36 µM	1.58 µM	3.08 µM	2.7 µM	9.19 µM	1.28 µM	2.61 µM	2.78 µM		1.74 µM	3.6 µM	1.32 µM	2.63 µM	1.72 µM	3.38 µM	1.99 µM	3.65 µM	1.66 µM	3.37 µM
CN1CCN(C(=O)/C=C/c2ccc([N+](=O)[O-])o2)CC1	21.6 µM	75.8 µM	13.4 µM	30.1 µM	46.5 µM	> 100 µM	18.2 µM	38.1 µM	29 µM	> 100 µM	3.76 µM	14.3 µM	10.5 µM	22.4 µM	3.11 µM	11.7 µM	38.1 µM	> 100 µM	7.52 µM	20.4 µM
O=C1NC(c2ccccc2Cl)Nc2ccccc21 (configuration not stated)		49.1 µM		> 100 µM		54.7 µM		> 100 µM		> 100 µM		> 100 µM		> 100 µM		> 100 µM		> 74 µM		> 80.5 µM
CC(C)c1ccc2c(c1)CCC1C2CCCC1(C)NCc1ccccc1 (configuration not stated)	8.77 µM	21.3 µM	6.76 µM	21.1 µM	4.99 µM	23.7 µM	0.608 µM	2.01 µM	14.3 µM	27.6 µM	1.92 µM	4.18 µM	4.21 µM	14.7 µM	1.97 µM	3.71 µM	12.8 µM	26.4 µM	1.82 µM	3.35 µM
O=C1c2ccccc2N1C(=O)c1ccccc1[N+](=O)[O-]		> 100 µM		> 100 µM		> 100 µM		> 100 µM		> 100 µM		> 100 µM		> 100 µM		> 100 µM		> 100 µM		> 100 µM
CN(C)CCCC1(c2ccc(F)cc2)OCc2cc(-c3csc4ccccc34)ccc21 (configuration not stated)	1.35 µM	2.8 µM	1.25 µM	2.62 µM	1.74 µM	3.76 µM	1.65 µM	3.14 µM	1.61 µM	3.12 µM	1.43 µM	2.94 µM			1.66 µM	3.36 µM	1.6 µM	3.04 µM	1.77 µM	3.17 µM

From PubChem BioAssay (NCI)
